What was measured:
[1] = test system: Patient-derived fibroblasts (AD patient, affected cells); test: Reversal of the AD-signature (mitochondrial behaviour variables V3, V5, V7, V11, V19) by dynamic imaging of MitoTracker green-labelled live cells; assay type: cell-based, human; conditions: for overall rescue of the diseased (AD) phenotype, weighted by discriminant equation: 30 min incubation, healthy control=100%, AD control=0%; for overall rescue / reversal of the AD-signature, dose-response: across tested doses (0.05/0.1 to 10 μM)
Description: Fibroblasts were labelled with MitoTracker green, a cell-permeant mitochondrial dye not sensitive to mitochondrial membrane potential, for 30 minutes. Images were recorded from an epifluorescence microscope continuously for 6 minutes. Cells were kept at 37° C. for the duration of the image capture. For each experimental condition, 3 to 15 cells were recorded per well from three independent plates, i.e. up to 6000 individual mitochondria. The maximum duration for data acquisition was 30 minutes (i.e. five cells observed during 6 min). Images were captured with a Zeiss Axioplan II microscope along three dimensions in space and in time.
Patient-derived fibroblasts were cultured in DMEM containing 15% fetal calf serum and 0.5% DMSO, a concentration known to be inert on the mitochondrial behaviour.
[…] These concentrations are consistent with circulating levels of most drugable small molecules. They are within the range of doses centered on cMax when PK/PD (Pharmacokinetic/Pharmacodynamic) studies are available.
The negative control consists in affected cells treated with the vehicle only (DMSO), the positive control consists in healthy cells treated with the vehicle only (DMSO).
Reference compounds were tested on affected cells and compared to the 2 controls.
All raw data were expressed as a percent of control values (Healthy control=100%, AD control=0%).
Data analysis of the signature variables was particularly tuned to identify bifurcation in the logic of the descriptor measured. These bifurcations and the type of adaptation put in place by the mitochondrial reticular network give us significant insights on how the cell adapts to the test element. Impact of the disease on each individual variable was analyzed through a classical linear analysis with an analysis of variance (ANOVAs). Significant differences between groups are sought through a Bonferroni post-hoc analysis.

[2] = cited from earlier work
[3] = across tested doses (0.1, 1, 10 μM)
[4] = across tested doses (0.1, 1, 10 μM; imatinib also 0.05 μM)

Row | SMILES | overall rescue of the diseased (AD) phenotype, weighted by discriminant equation ([1]; 1 μM) | overall rescue of the diseased (AD) phenotype, weighted by discriminant equation ([1]; 10 μM) | V5 (average cell area or dispersion descriptor of the areas of cells), % of phenotypic rescue ([1]; 1 and 10 μM) | overall rescue / reversal of the AD-signature, dose-response [1] | V7 (total area of regions containing entwined mitochondria to the total cell area), % of phenotypic rescue [1, 3] | V19 (frequency of mitochondria displaying an area between 2.6 and 3.1 μm^2), % of phenotypic rescue [1, 3] | V3 (dispersion descriptor of the moving speeds of mitochondria), % of phenotypic rescue [1, 4] | V11 (cell area covered with mitochondria), % of phenotypic rescue [1, 4] | V3 (dispersion descriptor of the moving speeds of mitochondria), % of phenotypic rescue ([1]; 0.05 μM) | V5 (average cell area or dispersion descriptor of the areas of cells), % of phenotypic rescue ([1]; 0.05 μM) | V7 (total area of regions containing entwined mitochondria to the total cell area), % of phenotypic rescue ([1]; 0.05 μM) | V11 (cell area covered with mitochondria), % of phenotypic rescue ([1]; 0.05 μM) | V19 (frequency of mitochondria displaying an area between 2.6 and 3.1 μm^2), % of phenotypic rescue ([1]; 0.05 μM) | overall rescue of the diseased (AD) phenotype, weighted by discriminant equation ([1]; 0.05 μM) | overall rescue of the diseased (AD) phenotype ([1]; doses lower than 0.05 μM (not shown)) | bioavailability [2] | overall rescue of the diseased (AD) phenotype, weighted by discriminant equation ([1]; 0.1 μM) | V5 (average cell area or dispersion descriptor of the areas of cells), % of phenotypic rescue [1, 3]
1 | CC(=O)[C@H]1CC[C@H]2[C@@H]3CC[C@H]4C[C@H](O)CC[C@]4(C)[C@H]3CC[C@]12C [Allopregnanolone] | 36% | provided a dose-dependent rescue | rescue was obtained | ability to reverse the AD-signature in a dose-dependent manner | detrimental at the lowest tested dose and tended to improve with increasing concentration of the drug but not to a level where the disease phenotype was reversed | no effect | rescue was obtained at all tested doses | detrimental at the lowest tested dose and tended to improve with increasing concentration of the drug but not to a level where the disease phenotype was reversed | – | – | – | – | – | – | – | – | – | –
2 | Cc1ccc(NC(=O)c2ccc(CN3CCN(C)CC3)cc2)cc1Nc1nccc(-c2cccnc2)n1 [Imatinib] | – | – | – | – | – | – | tended to improve with increasing doses | worsened | not affected | level comparable to that of healthy subject-derived cells | level comparable to that of healthy subject-derived cells | not affected | level comparable to that of healthy subject-derived cells | 54% | no effect | – | – | –
3 | Oc1ccc(C=Cc2cc(O)cc(O)c2)cc1 [Resveratrol] | did not provide rescue to the AD phenotype but a detrimental effect with worsening of the diseased status | 63% | – | ability to reverse the AD-signature in a dose-dependent manner | seesaw effects | greatly worsened the disease-phenotype | efficient in reversing the disease phenotype | greatly worsened the disease-phenotype | – | – | – | – | – | – | – | poor bioavailability | did not provide rescue to the AD phenotype but a detrimental effect with worsening of the diseased status | seesaw effects
